Reference: patent US20140128747A1, “ASSESSING E[…] USING A BLOOD PRESSURE CUFF” (THE REGENTS OF THE UNIVERSITY OF CALIFORNIA, priority 2011, published 2014)
Entries after “also recorded” stand apart in the source; their conditions may differ.

What was measured:
[1] = system: NO synthase; assay: Cuff single pulse waveform after endothelial stimulation with NO synthase blocked; type: in vivo, human; conditions: cuff inflated to 70 mmHg, FIG. 3
Source text: Both the amplitude and slope of the rising edge of the pulse increase markedly after endothelial stimulation.
In an artery with intact endothelial function, both pulse height (maximal cross-sectional arterial area) and compliance (maximum slope of the rising edge) increase markedly over baseline. […] FIG. 4 illustrates how a five minute cuff occlusion and the ensuring reactive hyperemia lead to major increases in area change per pulse and the maximum derivative of the area per pulse. Both metrics return to baseline levels after 20 minutes. FIG. 5 confirms the repeatability of the protocol by illustrating the effects of a series of two cuff occlusion periods. We see from FIG. 6 that only a small slow drift in the measured quantities occurs when no reactive hyperemic stimulus is applied.
A stimulus is then applied to the subject. Any of a number of stimuli expected to alter endothelial function are contemplated. Such stimuli include, for example, occlusion of blood flow, and/or application of one or more drugs to the subject. Illustrative drugs include, for example, drugs that act as NO agonists (e.g. acetylcholine), β2-adrenergic agonists such as albuterol, acoustic/mechanical tissue vibration, transcutaneous low frequency ultrasound (see, e.g., Iida et al. (2006) J. Amer. Coll. Cardiol., 48(3): 532-537), and the like. […]

[2] = system: human subjects; assay: Blood pressure cuff measurement of pulse amplitude (arterial area) and compliance response to sublingual nitroglycerin; type: in vivo; conditions: 0.4 mg sublingual NG, FIG. 10, all cases where NG was administered
Source text: We contend that such studies are unnecessary in order to make a determination that a method is effective in assessing endothelial function. Physical methods for arterial EF evaluation typically measure changes in the material properties of the artery. […] A major advantage of this method is that response to NG is intact even in individuals with endothelial dysfunction, so there is no need to perform a correlation analysis between two measurements.
We examined three individuals in the age-range 28-38. All subjects had Framingham risk scores of 1% or less, and had no history of cardiovascular disease. Each individual was assessed at least three times before and after RH induced by five minutes of suprasystolic cuff occlusion. […] Sensitivity to a 0.4 mg dose of sublingual NG was assessed three times in two individuals.
Sensitivity to a 0.4 mg dose of sublingual NG was assessed three times in two individuals.
We studied a single quantity relating to the recorded pressure data: the pulse amplitude, which we posit is proportional to the arterial area. During the post stimulus interval, pressure data from the cuff were recorded approximately every 80 seconds, for a period of 30 seconds. During each recording interval, the cuff was inflated to 70 mmHg, which was always below the measured diastolic pressure of the subject. […]

| SMILES | effect on increase of pulse amplitude (height) and slope of rising edge after endothelial stimulation [1] | increase in relative change in area [2] | increase in relative change in compliance [2] |
| --- | --- | --- | --- |
| COC(=O)[C@@H](N)CCCNC(=N)N[N+](=O)[O-] [L-NAME] | greatly attenuates this response; also recorded: greatly attenuated | – | – |
| O=[N+]([O-])OCC(CO[N+](=O)[O-])O[N+](=O)[O-] [NG, nitroglycerin] | – | more than 30% | more than 30% |
